US6310095A, “Inhibitors of protein isoprenyl transferases” (University of Pittsburgh, priority 1998, dated 2001)
Counter-ions that a name gives are not always drawn.

The compounds below were run against T1, protein farnesyltransferase (Rattus norvegicus, UniProt Q02293+Q04631) (assay: in vitro inhibition of protein farnesyltransferase (scintillation proximity assay, biotin-K Ras B fragment)). Conditions: at 1 × 10^-5 M.
T1 construct: Rat brain protein farnesyltransferase activity is measured; from tissue; host or cells: rat brain; purified according to Reiss et al., Cell 62:81-88 (1990), steps one through three
Type: biochemical
Outline: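 Rat brain enzyme, purified through three steps, in a scintillation proximity assay kit with biotin-K Ras B fragment substrate at 0.1 mM final. Value is % inhibition of farnesylation.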
For `Cc1ccccc1-c1cc(CN(Cc2ccccc2)c2cccnc2)ccc1C(=O)N[C@@H](CCS(C)(=O)=O)C(=O)O` [Example 759, (2S)-2-N-[4-(N-benzyl-N-3-pyridylaminomethyl)-2-(2-methylphenyl)benzoyl]amino-4-methanesulfonylbutanoic acid], the inhibition at 10 µM was 49%.

Same assay, conditions: at 1 × 10^-6 M
In the case of `CSCC[C@H](NC(=O)c1ccc(S(=O)(=O)N(Cc2ccccc2)c2ccccc2)cc1-c1ccccc1C)C(=O)[O-].[Li+]` [Example 768], the “% inhibition of farnesyltransferase” value is reported as 67%.
In the case of `CSCC[C@H](NC(=O)c1ccc(S(=O)(=O)NCCC2CCCCC2)cc1-c1ccccc1C)C(=O)O` [Example 772], the “% inhibition of farnesyltransferase” value is reported as 79%.
With `CSCC[C@H](NC(=O)c1ccc(S(=O)(=O)NC2CCN(Cc3ccccc3)CC2)cc1-c1ccccc1C)C(=O)O` [Example 773] the “% inhibition of farnesyltransferase” value was 41%.
With `CSCC[C@H](NC(=O)c1ccc(S(=O)(=O)NCCN2CCCCC2)cc1-c1ccccc1C)C(=O)O` [Example 774] the “% inhibition of farnesyltransferase” value was 48%.
With `CSCC[C@H](NC(=O)c1ccc(S(=O)(=O)NCCN2CCOCC2)cc1-c1ccccc1C)C(=O)O` [Example 775] the “% inhibition of farnesyltransferase” value was 32%.
For `COc1ccc(CCNS(=O)(=O)c2ccc(C(=O)N[C@@H](CCSC)C(=O)O)c(-c3ccccc3C)c2)cc1OC` [Example 776], the “% inhibition of farnesyltransferase” value was 36%.
For `CSCC[C@H](NC(=O)c1ccc(S(=O)(=O)NCCCn2ccnc2)cc1-c1ccccc1C)C(=O)O` [Example 777], the “% inhibition of farnesyltransferase” value was 83%.
In the case of `CSCC[C@H](NC(=O)c1ccc(-c2ccccc2-c2ccccc2)cc1-c1ccccc1C)C(=O)[O-].[Li+]` [Example 786], the “% inhibition of farnesyltransferase” value is reported as 34%.
For `CSCC[C@H](NC(=O)c1ccc(-c2cccc(-c3ccccc3)c2)cc1-c1ccccc1C)C(=O)[O-].[Li+]` [Example 787], the “% inhibition of farnesyltransferase” value was 70%.
With `CSCC[C@H](NC(=O)c1ccc(-c2ccc(-c3ccccc3)cc2)cc1-c1ccccc1C)C(=O)[O-].[Li+]` [Example 788] the “% inhibition of farnesyltransferase” value was 44%.
For `CSCC[C@H](NC(=O)c1ccc(C[C@H]2CC[C@@H](c3ccccc3)CC2)cc1-c1ccccc1C)C(=O)O` [Example 790], the “% inhibition of farnesyltransferase” value was 88%.
With `CSCC[C@H](NC(=O)c1ccc(/C=C/c2ccccc2)cc1-c1ccccc1C)C(=O)O` [Example 791] the “% inhibition of farnesyltransferase” value was 53%.
For `CSCC[C@H](NC(=O)c1ccc(CCc2cccc(-c3ccccc3)c2)cc1-c1ccccc1C)C(=O)[O-].[Li+]` [Example 793], the “% inhibition of farnesyltransferase” value was 94%.
For `CSCC[C@H](NC(=O)c1ccc(COC2CCN(Cc3ccccc3)CC2)cc1-c1ccccc1C)C(=O)O` [Example 807], the “% inhibition of farnesyltransferase” value was 90%.
For `CSCC[C@H](NC(=O)c1ccc(COC2CCN(C(=O)OC(C)(C)C)CC2)cc1-c1ccccc1C)C(=O)[O-].[Li+]` [Example 808], the “% inhibition of farnesyltransferase” value was 88%.
In the case of `CSCC[C@H](NC(=O)c1ccc(COC2(Cc3ccccc3)CCN(C(=O)OC(C)(C)C)CC2)cc1-c1ccccc1C)C(=O)[O-].[Li+]` [Example 809], the “% inhibition of farnesyltransferase” value is reported as 78%.
For `CSCC[C@H](NC(=O)c1ccc(/C=C/c2ccc(Oc3ccccc3)nn2)cc1-c1ccccc1C)C(=O)O` [Example 810], the “% inhibition of farnesyltransferase” value was 89%.
With `CSCC[C@H](NC(=O)c1ccc(/C=C/c2cnc(Oc3ccccc3)cn2)cc1-c1ccccc1C)C(=O)O` [Example 812] the “% inhibition of farnesyltransferase” value was 94%.
`CSCC[C@H](NC(=O)c1ccc(CCc2cnc(Oc3ccccc3)cn2)cc1-c1ccccc1C)C(=O)O` [Example 813] was tested, and the “% inhibition of farnesyltransferase” value was 95%.
`CSCC[C@H](NC(=O)c1ccc(COC2(c3ccccc3)CCN(C(=O)OC(C)(C)C)CC2)cc1-c1ccccc1C)C(=O)[O-].[Li+]` [Example 816] was tested, and the “% inhibition of farnesyltransferase” value was 87%.
For `CSCC[C@H](NC(=O)c1ccc(CN2CCC[C@H]2COCc2ccccc2)cc1-c1ccccc1C)C(=O)O` [Example 824], the “% inhibition of farnesyltransferase” value was 90%.

Same assay, conditions: at 1 × 10^-6 M; read-out: % inhibition of farnesyltransferase
`CCSC[C@H](CC1CCCCC1)NCc1ccc(C(=O)N[C@@H](CCSC)C(=O)OCOC(=O)C(C)(C)C)c(-c2ccccc2C)c1` [Example 764, hydrochloride salt] gave an inhibition at 1 µM of 88%.
In the case of `CCSC[C@H](CC1CCCCC1)NCc1ccc(C(=O)N(C)[C@@H](CCSC)C(=O)O)c(-c2ccccc2C)c1` [Example 765, lithium salt], the inhibition at 1 µM is reported as 76%.
For `CSCC[C@H](NC(=O)c1ccc(CN(Cc2ccc(C(F)(F)F)cc2)c2ccccc2)cc1-c1ccccc1C)C(=O)O` [Example 782, N-[4-N-(N-phenyl-N-(4-trifluoromethylbenzyl)aminomethyl)-2-(2-methylphenyl)-benzoyl]methionine lithium salt], the inhibition at 1 µM was 96%.

Same assay, conditions: at 1 × 10^-7 M
With `CSCC[C@H](NC(=O)c1ccc(C=Cc2cncs2)cc1-c1ccccc1C)C(=O)[O-].[Li+]` [Example 785] the “% inhibition of farnesyltransferase” value was 96%.
For `CSCC[C@H](NC(=O)c1ccc(COc2ccc(Oc3ccccc3)cc2)cc1-c1ccccc1C)C(=O)[O-].[Li+]` [Example 795], the “% inhibition of farnesyltransferase” value was 87%.
For `CSCC[C@H](NC(=O)c1ccc(CCc2ccc(Oc3ccccc3)nn2)cc1-c1ccccc1C)C(=O)O` [Example 811], the “% inhibition of farnesyltransferase” value was 85%.
With `CSCC[C@H](NC(=O)c1ccc(COC2CCC(NC(=O)OC(C)(C)C)CC2)cc1-c1ccccc1C)C(=O)[O-].[Li+]` (stereo partly drawn) [Example 817] the “% inhibition of farnesyltransferase” value was 60%.
`CSCC[C@H](NC(=O)c1ccc(COCc2ccc(-c3ccc(Cl)cc3)o2)cc1-c1ccccc1C)C(=O)NS(C)(=O)=O` [Example 818] was tested, and the “% inhibition of farnesyltransferase” value was 78%.
With `CSCC[C@H](NC(=O)c1ccc(COCC2CCC(c3ccc(Cl)cc3)O2)cc1-c1ccccc1C)C(=O)O` (stereo partly drawn) [Example 822] the “% inhibition of farnesyltransferase” value was 93%.
In the case of `CCCCC(OCc1ccc(C(=O)N[C@@H](CCSC)C(=O)[O-])c(-c2ccccc2C)c1)c1ccco1.[Li+]` (stereo partly drawn) [Example 825], the “% inhibition of farnesyltransferase” value is reported as 79%.

Same assay, conditions: at 1 × 10^-7 M; read-out: % inhibition of farnesyltransferase
`CSCC[C@H](NC(=O)c1ccc(CN(c2ccccc2)S(=O)(=O)c2ccccc2)cc1-c1ccccc1C)C(=O)O` [Example 769, N-[4-N-(N-phenyl-N-benzenesulfonylaminomethyl)-2-(2-methylphenyl)benzoyl]methionine lithium salt] gave an inhibition at 0.1 µM of 90%.
`CSCC[C@H](NC(=O)c1ccc(CN(c2ccccc2)S(=O)(=O)c2ccc(C)cc2)cc1-c1ccccc1C)C(=O)O` [Example 770, N-[4-N-(N-phenyl-N-toluenesulfonylaminomethyl)-2-(2-methylphenyl)benzoyl]methionine lithium salt] was tested, and the inhibition at 0.1 µM was 91%.
Work on `CSCC[C@H](NC(=O)c1ccc(CN(Cc2ccc(Cl)cc2)c2ccccc2)cc1-c1ccccc1C)C(=O)O` [Example 781, N-[4-N-(N-phenyl-N-(4-chlorobenzyl)aminomethyl)-2-(2-methylphenyl)benzoyl]methionine lithium salt] yielded an inhibition at 0.1 µM of 91%.

Same assay, conditions: at 1 × 10^-8 M
For `CSCC[C@H](NC(=O)c1ccc(COCc2ccc(-c3ccc(Cl)cc3)o2)cc1-c1ccccc1C)C(=O)NS(=O)(=O)c1ccccc1` [Example 819], the “% inhibition of farnesyltransferase” value was 76%.
For `CSCC[C@H](NC(=O)c1ccc(COCc2ccc(-c3ccc(C(C)C)cc3)o2)cc1-c1ccccc1C)C(=O)[O-].[Li+]` [Example 820], the “% inhibition of farnesyltransferase” value was 66%.
`CSCC[C@H](NC(=O)c1ccc(COCc2ccc(-c3ccc(N(C)C)cc3)o2)cc1-c1ccccc1C)C(=O)O` [Example 821] was tested, and the “% inhibition of farnesyltransferase” value was 75%.
For `CCCCC(OCc1ccc(C(=O)N[C@@H](CCSC)C(=O)[O-])c(-c2ccccc2C)c1)c1ccc(-c2ccc(Cl)cc2)o1.[Li+]` (stereo partly drawn) [Example 826], the “% inhibition of farnesyltransferase” value was 92%.
With `CSCC[C@H](NC(=O)c1ccc(COCc2occc2-c2ccc(Cl)cc2)cc1-c1ccccc1C)C(=O)[O-].[Li+]` [Example 827] the “% inhibition of farnesyltransferase” value was 77%.
For `CSCC[C@H](NC(=O)c1ccc(COC(Cc2ccccc2)c2cncs2)cc1-c1ccccc1C)C(=O)[O-].[Li+]` (stereo partly drawn) [Example 828], the “% inhibition of farnesyltransferase” value was 87%.

Same assay, conditions: at 1 × 10^-8 M; read-out: % inhibition of farnesyltransferase
With `CSCC[C@H](NC(=O)c1ccc(CN(CCC2CCCCC2)C(=O)c2ccccc2)cc1-c1ccccc1C)C(=O)O` [Example 762, N-[4-N-Benzoyl-N-2-cyclohexylethylaminomethyl-2-(2-methylphenyl)benzoyl]methionine lithium salt] the inhibition at 0.01 µM was 84%.
`CSCC[C@H](NC(=O)c1ccc(CN(CCC2CCCCC2)C(=O)OC(C)(C)C)cc1-c1ccccc1C)C(=O)O` [Example 763, N-[4-N-t-Butyloxycarbonyl-N-2-cyclohexylethylaminomethyl-2-(2-methylphenyl)benzoyl]methionine lithium salt] showed an inhibition at 0.01 µM of 92%.
`CSCC[C@H](NC(=O)c1ccc(CN[C@H](CSC2CCCCC2)CC2CCCCC2)cc1-c1ccccc1C)C(=O)O` [Example 766, lithium salt] was tested, and the inhibition at 0.01 µM was 95%.
Work on `CSCC[C@H](NC(=O)c1ccc(CN[C@H](CSc2ccccc2C)CC2CCCCC2)cc1-c1ccccc1C)C(=O)O` [Example 767, lithium salt] yielded an inhibition at 0.01 µM of 97%.
With `COc1cccc(CN(Cc2ccc(C(=O)N[C@@H](CCSC)C(=O)O)c(-c3ccccc3C)c2)c2ccccc2)c1` [Example 779, N-[4-N-(N-phenyl-N-(3-methoxybenzyl)aniinomethyl)-2-(2-methylphenyl)benzoyl]methionine lithium salt] the inhibition at 0.01 µM was 70%.
In the case of `CSCC[C@H](NC(=O)c1ccc(CN(c2ccccc2)S(=O)(=O)c2ccc(C(F)(F)F)cc2)cc1-c1ccccc1C)C(=O)O` [Example 780, N-[4-N-(N-phenyl-N-(4-trifluoromethylbenzenesulfonyl)aminomethyl)-2-(2-methylphenal)-benzoyl]methionine lithium salt], the inhibition at 0.01 µM is reported as 71%.

Same assay, conditions: read-out: % inhibition of farnesyltransferase
Compound `CCOC(=O)N1CCC(NCc2ccc(C(=O)N[C@@H](CCSC)C(=O)O)c(-c3ccccc3C)c2)CC1` [Example 806, N-[4-(1-ethoxycarbonylpiperidin-4-ylaminomethyl)-2-(2-methylphenyl)benzoyl]methionine lithium salt] has an inhibition at 1 µM of 72%.
